In one data set the target is T1, hyaluronidase (Bos taurus, UniProt Q2YDK3).
T1 sequence (Q2YDK3 36-553): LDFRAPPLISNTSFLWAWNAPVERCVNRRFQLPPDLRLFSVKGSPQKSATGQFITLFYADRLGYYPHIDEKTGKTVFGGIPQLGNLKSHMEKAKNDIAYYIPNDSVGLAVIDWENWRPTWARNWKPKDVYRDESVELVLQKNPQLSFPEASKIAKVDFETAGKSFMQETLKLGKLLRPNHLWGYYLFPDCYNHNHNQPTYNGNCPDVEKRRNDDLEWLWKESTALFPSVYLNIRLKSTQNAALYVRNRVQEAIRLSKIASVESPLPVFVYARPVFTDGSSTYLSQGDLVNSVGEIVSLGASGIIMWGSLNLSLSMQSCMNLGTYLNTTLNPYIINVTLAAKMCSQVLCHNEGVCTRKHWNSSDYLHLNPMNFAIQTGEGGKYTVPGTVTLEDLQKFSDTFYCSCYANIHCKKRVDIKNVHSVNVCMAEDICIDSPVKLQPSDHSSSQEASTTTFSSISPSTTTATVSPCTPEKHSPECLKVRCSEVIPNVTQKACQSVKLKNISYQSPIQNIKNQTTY
Briefly: Antihyaluronidase activity (modified Morgan-Elson method, activated by Compound 48/80 or CaCl2). Type of data set: biochemical. The conditions noted are these: hyaluronidase 340 NF unit/ml, 37° C. From the text:
In view of the fact that antiallergic agents such as sodium cromoglicate (DSCG), tranilast, etc. inhibit the hyaluronidase activity and that compounds which release histamine from the mast cells such as the […] and polymixin B activate the hyaluronidase, it is considered that the hyaluronidase inhibiting activity can be taken as an index for the antiallergic action. [ct. The 5th Medicinal Chemistry Symposium (Dec. 9 and 10, 1983; Kyoto) Synopsis of Lectures, page 68]. On the basis of such knowledge, the compounds according to the invention were tested for anti-hyaluronidase activity and found to have the excellent activities.
A buffer solution of hyaluronidase (0.1 ml) was taken in a test tube and buffer solutions of various compounds in various concentrations (0.2 ml each) were added. The mixture was incubated at 37° C. for 20 minutes. Then, a buffer solution of activating agent (Compound 48/80 or CaCl2) (0.2 ml) was added up to the total volume of 0.5 ml, and the mixture was incubated at 37° C. for 20 minutes. To this solution, potassium hyaluronate buffer solution (0.5 ml) was added and the mixture was incubated at 37° C. for 40 minutes. After cooling, the solution was neutralized with 0.4N aqueous solution of sodium hydroxide (0.2 ml) to stop the reaction. On the resulting solution, OD585 was determined by modified Morgan-Elson method. A buffer solution or water (0.2 ml) was used as a control in place of the solution of the compounds in the same operation including OD585 measurement. (Final concentration of hyaluronidase was 340 NF unit/ml.)

The test system of the next data set is peritoneal mast cell. Briefly: Inhibition of histamine release from mast cell in abdominal cavity of rats by antigen-antibody reaction. In kind it is cell-based, rat. The conditions noted are these: for activity at 1000 µM / activity at 100 µM / activity at 10 µM / activity at 1 µM: Rattus norvegicus, Mast cell, 20 min, DNP-Ascaris 20 microgramms/ml, read-out: Amount of histamine released from peritoneal mast cell (Control=100); for activity at 1000 µM / effect on natural release of histamine (in words): 10^-3 M; for activity at 100 µM: 10^-4 M; for activity at 10 µM: 10^-5 M; for activity at 1 µM: 10^-6 M; for inhibitory activity compared with tranilast (in words): range of 10^-6 M to 10^-3 M. Here is the method:
Examination was made on the activity of inhibition of histamine release from mast cell by antigen-antibody reaction.
Swine ascaris extract solution was dinitrophenylated according to Aisen's method, dialysed, and lyophilized. The product was administered as antigen together with Bordetella Pertussis vaccine subcutaneously into the foot pad of rat. Eight days later, blood was taken in order to obtain antiserum. The PCA titer for this antiserum in rat was 32 to 64.
Heparin-containing PBS was injected intraperitoneally to rat which was sacrificed by exsanguination, after which the abdomen was well massaged. Then the injected PBS was collected and purified by washing several times by centrifugation. The number of the mast cells contained in the solution was determined and adjusted to the designed concentration. As to method of sensitizing the cell, the above cell suspension (6 ml, 2×10^6 cells/ml) was treated with anti-DNP-Ascaris rat serum (PCA titer 32) (6 ml) and the mixture was incubated in the presence of heparin at 37° C. for 2 hours.
To the sensitized mast cell suspension, the solution of the compound to be tested was added, and the mixture was preliminarily incubated at 37° C. for 12 minutes. After addition of the solution of antigen DNP-Ascaris (final concentration: 20 microgramms/ml), the mixture was further incubated for 20 minutes. After completion of the reaction, the solution was centrifuged (500 G, 10 min.) at a low temperature to obtain a supernatant solution. Histamine contained in the supernatant solution was determined by fluorometry using orthophthalaldehyde method.

In data set [1] the test system is passive cutaneous anaphylaxis. Briefly: Anti-passive cutaneous anaphylaxis (PCA) activity in rats. The conditions noted are these: for anti-PCA activity (in words): rat, in vivo; for Average Inhibition Rate (%), Antiserum Dilution: × 16 / Average Inhibition Rate (%), Antiserum Dilution: × 32: 100 mg/kg PO, rats. Type of data set: in vivo, Wistar strain rats. Here is the method: Wistar strain rats were sensitized with ovalbumin using aluminium hydroxide gel and Bordetella Pertussis vaccine as adjuvants. Dilutions of antiserum (16-fold and 32-fold) obtained by collecting blood samples 14 days later were administered subcutaneously in the dorsal skin of the rats of the same strain at the rate of 0.1 ml per spot, and the rats were grown for 48 hours. One hour after peroral administration of the sample solution, a mixture of antigen ovalbumin and Evans-blue dye was administered to the tail venous of the animal according to the ordinary procedure. Thirty minutes later, the animals were sacrificed by exsanguination, and the areas of blue spots (long diameter×short diameter) eliciting on the portion of the antiserum injection at the dorsal skin were measured to obtain the rate of inhibition based on the average value shown by the control animals.

Data set [2] deals with ileum of guinea pig active-sensitized with ovalbumin. Briefly: Anti-Schultz-Dale action: ovalbumin-induced contraction of sensitized ileum. The conditions noted are these: 10^-3 M. Here is the method: A piece of ileum of guinea pig active-sensitized with ovalbumin with Freund complete adjuvant was suspended in Tyrode's solution in a Magnus tube and incubated with a solution of the compound to be tested for a predetermined duration. The contraction of the piece of ileum induced by applying the ovalubumin was compared with that attributed to 10^-6 M histamine dihydrochloride. The anti-Schultz-Dale action was shown in terms of the rate of inhibition to the contraction.

In a further data set the test system is SRS-A. Briefly: Anti-SRS-A action: ileum contraction induced by crude SRS-A solution. On the set-up: species or system guinea pig. Here is the method: A piece of lung of guinea pig sensitized with ovalbumin was incubated with antigen ovalbumin at 37° C. for 20 minutes and supernatant was separated in order to use as a crude SRS-A solution.
A piece of ileum of a normal guinea pig was suspended in Tyrode's solution in a Magnus tube and incubated with a solution of the compound to be tested for a predetermined duration. The contraction of the piece of ileum induced by adding the above crude SRS-A solution was compared with that attributed to 10^-6 M histamine dihydrochloride (which was taken as 100). The anti-SRS-A action was shown in terms of the rate of inhibition to the contraction.

A short description of the next data set: Acute toxicity. The conditions noted are these: mouse, in vivo, mice, one week. Here is the method:
As test animals, ddy-strain mice (male) were used. According to the conventional procedure, suspension or solution of test compound was administered to the animals. From the number of the dead animals up to one week after the administration, LD50 values were obtained by Provit method.

One may read the IC50 as the concentration at which inhibition is half-maximal. The molecule `O=C(C=Cc1ccco1)Nc1ccccc1C(=O)O` [Compound 3, 2-[3-(2-furyl)acrylamido]benzoic acid] yielded an IC50 on hyaluronidase of 160 µM. In the data set with peritoneal mast cell, the “inhibition of histamine release from mast cell (in words)” value (shortened to “inhibition of histamine release”) is listed as “strong inhibition from 10^-4 M”, the activity at 1000 µM is 0%, the activity at 100 µM worked out at 36% and the activity at 10 µM worked out at 85%. In addition, in the data set with peritoneal mast cell, the activity at 1 µM was 95% and the “inhibitory activity compared with tranilast (in words)” value is recorded as “stronger inhibitory activity than the control tranilast”. In addition, the “anti-PCA activity (in words)” value in data set [1] is on record as “showed the anti-PCA activity”.
`O=C(C=Cc1ccco1)Nc1cc([N+](=O)[O-])ccc1C(=O)O` [Compound 5] gave a 50% inhibitory concentration (IC50) on hyaluronidase of 300 µM.
Broadly, the LD50 is the dose at which mortality reaches 50%. Read a high LD50 as lower toxicity. For the molecule `O=C(C=Cc1ccsc1)Nc1ccccc1C(=O)O` [Compound 1, 2-[3-(3-thienyl)acrylamido]benzoic acid], in data set [2], the “anti-Schultz-Dale action (in words)” value is “strong anti-Schultz-Dale action” and the “inhibition of contraction (anti-Schultz-Dale)” value was 83.5%. The same molecule came in with an IC50 at hyaluronidase of 86 µM. The “anti-SRS-A action (in words)” value with SRS-A is reported as “mild anti-SRS-A action”. The “inhibition of SRS-A induced contraction” value in the data set on SRS-A (10^-3 M) is listed as 23.9%. For the same molecule, the “inhibition of SRS-A induced contraction” value in the data set with SRS-A (10^-4 M) was determined as 14.8%. This molecule displayed an LD50 at 168 h in the data set “Acute toxicity” (Intravenous) of 438 mg/kg. Further, in “Acute toxicity” (PO), the 50% lethal dose (LD50) at 168 h was determined as 615 mg/kg. Moreover, in the data set with peritoneal mast cell, the “inhibition of histamine release” value is given as “action of inhibiting release of histamine from the mast cell even at the low concentration of 10^-6 M”, the “effect on natural release of histamine (in words)” value is given as “inhibited natural release of histamine”, the activity at 1000 µM is -88% and the activity at 100 µM was found to be 11%. Also, in the data set on peritoneal mast cell, the activity at 10 µM is 36%, the activity at 1 µM amounted to 31% and the “inhibitory activity compared with tranilast (in words)” value is “stronger inhibitory activity than the control tranilast”. In data set [1], the “Average Inhibition Rate (%), Antiserum Dilution: × 16” value was 31.6% and the “Average Inhibition Rate (%), Antiserum Dilution: × 32” value is given as 41.8%.
As for `COc1ccc(/C=C/C(=O)Nc2ccccc2C(=O)O)cc1OC` [Tranilast, reference compound], in data set [2], the “anti-Schultz-Dale action (in words)” value is listed as “no action”. Also, in the data set with SRS-A, the “anti-SRS-A action (in words)” value is listed as “no action”. In the data set with peritoneal mast cell, the activity at 1000 µM worked out at 29%, the activity at 100 µM amounted to 67%, the activity at 10 µM stood at 95% and the activity at 1 µM came out at 95%.
Consider `Cn1cccc1C=CC(=O)Nc1ccccc1C(=O)O` [Compound 6], for which inhibition on hyaluronidase was half-maximal at 120 µM (IC50).
`O=C(C=Cc1ccco1)Nc1cc(Cl)ccc1C(=O)O` [Compound 4] gave a half-inhibitory concentration (IC50) at hyaluronidase of 258 µM.
Turning to `O=C(C=Cc1cccs1)Nc1ccccc1C(=O)O` [Compound 2, 2-[3-(2-thienyl)acrylamido]benzoic acid], in data set [2], the “anti-Schultz-Dale action (in words)” value is “strong anti-Schultz-Dale action” and the “inhibition of contraction (anti-Schultz-Dale)” value was determined as 100%. Besides, the IC50 on hyaluronidase came out at 140 µM. Also, the “anti-SRS-A action (in words)” value with SRS-A was “mild anti-SRS-A action”. Also, in the data set with SRS-A (10^-3 M), the “inhibition of SRS-A induced contraction” value amounted to 11.0%. In addition, the LD50 at 168 h in the data set “Acute toxicity” (Intravenous) came to 277 mg/kg. In the data set “Acute toxicity” (PO), the LD50 at 168 h was found to be 400 mg/kg. In the data set on peritoneal mast cell, the “inhibition of histamine release” value was “action of inhibiting release of histamine from the mast cell even at the low concentration of 10^-6 M”, the “effect on natural release of histamine (in words)” value is given as “inhibited natural release of histamine”, the activity at 1000 µM was -130% and the activity at 100 µM is -70%. Further, in the data set on peritoneal mast cell, the activity at 10 µM came to 24%, the activity at 1 µM is 11% and the “inhibitory activity compared with tranilast (in words)” value is recorded as “stronger inhibitory activity than the control tranilast”. Besides, in data set [1], the “Average Inhibition Rate (%), Antiserum Dilution: × 16” value was found to be 26.7%; the “Average Inhibition Rate (%), Antiserum Dilution: × 32” value is recorded as 21.2%; the “anti-PCA activity (in words)” value is given as “showed the anti-PCA activity”.

(Values after patent US5006548A, “Acrylamidobenzoic acid derivatives and their use” (Sawai Pharmaceutical Co., Ltd., priority 1984, dated 1991).)
